Data published in patent US7919456B2, “Connective tissue derived polypeptides” (Proteobioactives Pty Ltd., priority 2003, dated 2011).

Tested on: rat collagen induced arthritis (CIA) model
Test: Rat collagen induced arthritis (CIA), prophylactic/therapeutic protocol
Type: in vivo, Female Wistar rats
Details: 6.3 mg/kg SC
[1] = 15 days treatment, n = 4, scored 0-4+

O=C(O)CC([S-])C(=O)O.[Au+] (stereo not drawn) [ATM, aurothiomalate]
Signs of arthritis Day 15 Weight change: +47 g | Signs of arthritis Day 18 Weight change: +04 g | Mean arthritis scores Day 13 [1]: 0.8 | Mean arthritis scores Day 15 [1]: 2.1 | Mean arthritis scores Day 18 [1]: 2.1 | Signs of arthritis Day 15 F/paw swell (fore paw): 2.5 mm | Signs of arthritis Day 18 F/paw swell (fore paw): 3.2 mm | Signs of arthritis Day 15 R/paw swell (rear paw): 0.7 mm | Signs of arthritis Day 18 R/paw swell (rear paw): 0.8 mm
